From patent publication US4138554A, “7-[D-α-(4-Hydroxy-1,5-naphthyridine-3-carboxamido)-α-phenyl (and p-hydroxyphenyl)acetamido]-3-carbamoyloxymethyl-3-cephem-4-carboxylic acids” (priority 1977, dated 1979)
Like-named read-outs stand apart in the source and are kept apart here.

Assays:
[1] = tested on: Pseudomonas aeruginosa; assay: MIC by agar dilution against 61 strains of Pseudomonas aeruginosa, secondary evaluation; assay type: cell-based; details: Pseudomonas aeruginosa
Method in brief: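 Compounds were diluted two-fold serially into Mueller-Hinton agar, then organisms were applied using Steers' apparatus and MICs read. The primary panel comprised 31 test organisms, and the secondary evaluation 61 strains of P. aeruginosa.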

[2] = Mouse blood levels after subcutaneous injection; assay type: in vivo; details: blood, sc, subcutaneous, read-out: Blood Levels
Text: |Mouse Blood Levels | Blood Levels in Mcg./Ml. at | Indicated Hours After Subcu- |Dose in taneous Injection

CC1(C)S[C@@H]2[C@H](NC(=O)C(c3ccccc3)S(=O)(=O)O)C(=O)N2[C@H]1C(=O)O (stereo partly drawn) [Sulbenicillin, sulbenicillin]
25 µg/mL: MIC ([1]; BBRI Pa-No. 34, Table 2, read-out: MIC) | MIC ([1]; BBRI Pa-No. 37, Table 7, read-out: MIC) | MIC ([1]; BBRI Pa-No. 39, Table 2, read-out: MIC) | MIC ([1]; BBRI Pa-No. 39, Table 7, read-out: MIC) | MIC ([1]; BBRI Pa-No. 41, Table 2, read-out: MIC) | MIC ([1]; BBRI Pa-No. 41, Table 7, read-out: MIC) | MIC ([1]; BBRI Pa-No. 43, Table 7, read-out: MIC) | MIC ([1]; BBRI Pa-No. 51, Table 2, read-out: MIC) | MIC ([1]; BBRI Pa-No. 51, Table 7, read-out: MIC) | MIC ([1]; BBRI Pa-No. 52, Table 2, read-out: MIC) | MIC ([1]; BBRI Pa-No. 53, Table 2, read-out: MIC) | MIC ([1]; BBRI Pa-No. 53, Table 7, read-out: MIC) | MIC ([1]; BBRI Pa-No. 54, Table 7, read-out: MIC) | MIC ([1]; BBRI Pa-No. 55, Table 2, read-out: MIC) | MIC ([1]; BBRI Pa-No. 55, Table 7, read-out: MIC) | MIC ([1]; BBRI Pa-No. 56, Table 2, read-out: MIC) | MIC ([1]; BBRI Pa-No. 56, Table 7, read-out: MIC) | MIC ([1]; BBRI Pa-No. 57, Table 2, read-out: MIC) | MIC ([1]; BBRI Pa-No. 57, Table 7, read-out: MIC) | MIC ([1]; BBRI Pa-No. 59, Table 7, read-out: MIC) | MIC ([1]; BBRI Pa-No. 61, Table 7, read-out: MIC) | MIC ([1]; BBRI Pa-No. 64, Table 2, read-out: MIC) | MIC ([1]; BBRI Pa-No. 64, Table 7, read-out: MIC) | MIC ([1]; BBRI Pa-No. 65, Table 2, read-out: MIC) | MIC ([1]; BBRI Pa-No. 65, Table 7, read-out: MIC) | MIC ([1]; BBRI Pa-No. 66, Table 2, read-out: MIC) | MIC ([1]; BBRI Pa-No. 66, Table 7, read-out: MIC) | MIC ([1]; BBRI Pa-No. 67, Table 7, read-out: MIC) | MIC ([1]; BBRI Pa-No. 70, K-Ps102 (CR-102), Table 2, read-out: MIC)
1200 ng/mL: concentration at 1 h ([2]; 20 mg/kg, 20 Mgm./Kg.)
22000 ng/mL: concentration at 0.25 h ([2]; 40 mg/kg, 40 Mgm./Kg.)
5000 ng/mL: concentration at 1 h ([2]; 40 mg/kg, 40 Mgm./Kg.)
1.6 µg/mL: MIC ([1]; BBRI Pa-No. 36, Table 2, read-out: MIC)
< 1000 ng/mL: concentration at 2 h ([2]; 40 mg/kg, 40 Mgm./Kg., 2.0 hours)
12.5 µg/mL: MIC ([1]; GN315)
> 100 µg/mL: MIC ([1]; BBRI Pa-No. 42, Table 2, read-out: MIC) | MIC ([1]; BBRI Pa-No. 42, Table 7, read-out: MIC) | MIC ([1]; BBRI Pa-No. 62, Table 2, read-out: MIC) | MIC ([1]; BBRI Pa-No. 62, Table 7, read-out: MIC)
9800 ng/mL: concentration at 0.25 h ([2]; 20 mg/kg, 20 Mgm./Kg.)
0.8 µg/mL: MIC ([1]; BBRI Pa-No. 36, Table 7, read-out: MIC)
100 µg/mL: MIC ([1]; BBRI Pa-No. 35, Table 2, read-out: MIC) | MIC ([1]; BBRI Pa-No. 38, Table 7, read-out: MIC) | MIC ([1]; BBRI Pa-No. 69, Table 7, read-out: MIC)
14000 ng/mL: concentration at 0.5 h ([2]; 40 mg/kg, 40 Mgm./Kg.)
50 µg/mL: MIC ([1]; BBRI Pa-No. 35, Table 7, read-out: MIC) | MIC ([1]; BBRI Pa-No. 37, Table 2, read-out: MIC) | MIC ([1]; BBRI Pa-No. 38, Table 2, read-out: MIC) | MIC ([1]; BBRI Pa-No. 43, Table 2, read-out: MIC) | MIC ([1]; BBRI Pa-No. 44 (unnamed strain), Table 7, read-out: MIC) | MIC ([1]; BBRI Pa-No. 44, Table 2, read-out: MIC) | MIC ([1]; BBRI Pa-No. 52, Table 7, read-out: MIC) | MIC ([1]; BBRI Pa-No. 54, Table 2, read-out: MIC) | MIC ([1]; BBRI Pa-No. 58, Table 2, read-out: MIC) | MIC ([1]; BBRI Pa-No. 58, Table 7, read-out: MIC) | MIC ([1]; BBRI Pa-No. 59, Table 2, read-out: MIC) | MIC ([1]; BBRI Pa-No. 61, Table 2, read-out: MIC) | MIC ([1]; BBRI Pa-No. 67, Table 2, read-out: MIC) | MIC ([1]; BBRI Pa-No. 68, Table 2, read-out: MIC) | MIC ([1]; BBRI Pa-No. 68, Table 7, read-out: MIC) | MIC ([1]; BBRI Pa-No. 69, Table 2, read-out: MIC) | MIC ([1]; BBRI Pa-No. 70, K-Ps102(CR-102), Table 7, read-out: MIC) | MIC ([1]; GN315, BBRI Pa-No. 27, GN315, Table 2, read-out: MIC) | MIC ([1]; GN4925, BBRI Pa-No. 44, GN4925, Table 7, read-out: MIC) | MIC ([1]; GN4925, BBRI Pa-No. 45, GN4925, Table 2, read-out: MIC)
7500 ng/mL: concentration at 0.5 h ([2]; 20 mg/kg, 20 Mgm./Kg.)
